Patent US10294230B2, “3,3-difluoropiperidine carbamate heterocyclic compounds as NR2B NMDA receptor antagonists” (Rugen Holdings (Cayman) Limited, priority 2015, dated 2019)

Experiments:
[1] = target: NR2B (Homo sapiens (Human), UniProt Q05586+Q13224); details: cited from earlier work
[2] = test system: immobility in forced swim test; test: Forced Swim Test (FST) in mice; type: in vivo
Text: (§1) The forced swim test (FST) also known at the behavioural despair test was used to evaluate antidepressant activity (Porsolt et al., 1977 Arch. Int. Pharmacodyn. 229: 327-336, Porsolt et al., 1977, Eur. J. Pharmacol. 47:379-391). Mice or rats that are forced to swim in a situation from which they cannot escape, rapidly become immobile. Drugs with antidepressant activity, such as imipramine, reduce the amount of time spent in the immobile state. Therefore, the amount of immobility time during a test conducted after drug administration represents a useful indicator of antidepressant activity (Lucki et al 2001 Psychopharmacology 155:315-322; Porsolt et al., 1977, Nature 266:730-732).
(§2) Test compound E1-8.2 was administered as the free base.
Mice were evaluated in a single swimming test session of 6 minutes. Mice were placed in a transparent plastic cylinder 24 cm high with a diameter of 13 cm containing 10 cm of water with ambient temperature control generally from 22±2° C. Mice were placed in the water for 6 minutes and the duration of immobility during the last 4 minutes was measured.
Animals were observed by a blinded observer. The observer judged the animal to be immobile when it ceased all activity (struggling, swimming, jumping etc.) and floated passively atop the water. The amount of time each animal spent in the immobile state (and the latency to the first bout of immobility) was recorded and used for statistical analysis of compound effect. Group differences were evaluated by student's t-test (reference substance) or one-way ANOVA followed by post-hoc Dunnett's test (test substances). […]
Male mice (strain NLMN) weighing 25-35 g were used for testing. […] The mice were videotaped for 6 minutes, and the last 4 minutes of video were analyzed by a blinded observer off-line. […] The amount of time each animal spent in the immobile state was recorded and used for statistical analysis of compound effect. Group differences were evaluated by student's t-test or one-way ANOVA followed by post-hoc Dunnett's test. […]

[3] = test system: immobility in forced swim test; test: Forced Swim Test (FST) in rats; type: in vivo
Text: as §1, §2
Male Wistar rats weighing 197-251 g were used for the rat test. Rats were evaluated according to a two-session procedure with a swimming session of 15 minutes on the first day of the experiment (Session 1) followed 24 hours later by a 5-minute swimming test (Session 2). […] Rats were placed in the water 24 h later for 5 minutes (Session 2) and the duration of immobility was measured.
Animals were observed by a blinded observer. […] The amount of time each animal spent in the immobile state (and the latency to the first bout of immobility) was recorded and used for statistical analysis of compound effect. […]

Chain of NR2B (Q13224 27-1484, species assumed, other chains not shown): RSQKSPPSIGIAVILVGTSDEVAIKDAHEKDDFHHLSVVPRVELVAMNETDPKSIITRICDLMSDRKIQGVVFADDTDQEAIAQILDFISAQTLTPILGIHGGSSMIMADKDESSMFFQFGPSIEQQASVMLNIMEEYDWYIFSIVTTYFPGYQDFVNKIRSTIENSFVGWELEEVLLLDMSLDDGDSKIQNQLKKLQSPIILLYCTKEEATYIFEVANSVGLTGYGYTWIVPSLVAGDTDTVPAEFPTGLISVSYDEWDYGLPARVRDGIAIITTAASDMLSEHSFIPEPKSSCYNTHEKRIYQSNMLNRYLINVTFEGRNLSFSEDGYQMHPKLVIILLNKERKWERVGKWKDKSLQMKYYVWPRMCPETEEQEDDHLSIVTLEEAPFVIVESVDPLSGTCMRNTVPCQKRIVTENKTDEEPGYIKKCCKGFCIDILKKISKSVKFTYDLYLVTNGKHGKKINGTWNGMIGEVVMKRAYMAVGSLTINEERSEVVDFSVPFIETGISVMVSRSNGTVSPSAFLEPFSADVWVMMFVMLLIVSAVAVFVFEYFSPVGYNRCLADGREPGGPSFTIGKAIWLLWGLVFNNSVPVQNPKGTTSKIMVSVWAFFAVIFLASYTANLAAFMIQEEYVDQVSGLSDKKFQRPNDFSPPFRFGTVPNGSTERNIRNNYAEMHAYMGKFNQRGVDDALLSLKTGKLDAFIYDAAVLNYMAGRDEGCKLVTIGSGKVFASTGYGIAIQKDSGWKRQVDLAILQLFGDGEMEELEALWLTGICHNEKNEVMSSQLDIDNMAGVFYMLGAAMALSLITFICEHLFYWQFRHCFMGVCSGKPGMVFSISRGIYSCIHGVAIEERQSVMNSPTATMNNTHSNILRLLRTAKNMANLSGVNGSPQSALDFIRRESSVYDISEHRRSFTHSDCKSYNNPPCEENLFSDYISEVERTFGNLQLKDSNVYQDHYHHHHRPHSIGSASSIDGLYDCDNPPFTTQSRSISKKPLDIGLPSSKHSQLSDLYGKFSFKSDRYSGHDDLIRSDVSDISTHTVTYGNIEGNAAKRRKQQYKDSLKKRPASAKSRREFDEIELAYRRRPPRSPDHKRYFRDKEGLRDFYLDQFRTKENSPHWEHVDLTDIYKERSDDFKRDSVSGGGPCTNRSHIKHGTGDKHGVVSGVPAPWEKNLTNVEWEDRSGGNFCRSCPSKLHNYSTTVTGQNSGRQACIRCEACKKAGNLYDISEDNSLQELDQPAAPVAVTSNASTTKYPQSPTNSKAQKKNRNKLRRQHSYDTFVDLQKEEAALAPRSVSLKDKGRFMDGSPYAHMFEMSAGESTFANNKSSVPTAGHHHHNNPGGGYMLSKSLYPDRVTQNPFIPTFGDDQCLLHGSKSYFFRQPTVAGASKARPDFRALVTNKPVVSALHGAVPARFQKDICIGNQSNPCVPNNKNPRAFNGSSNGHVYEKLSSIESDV

| SMILES | potency against NR2B [1] | immobility time, antidepressant activity ([2]; 32 mpk i.p. once 30 min before the test) | immobility time, antidepressant activity ([2]; 64 mpk p.o. once 60 min before the test) | immobility time, antidepressant activity ([2]; 128 mpk p.o. once 60 minutes before the test on Day 7) | immobility time, antidepressant activity ([3]; 32 mpk i.p. 3 times: 24 h, 4 h and 30 min before Session 2) | immobility time, antidepressant activity ([3]; 64 mpk p.o. 3 times: 24 h, 4 h and 60 min before Session 2) |
| --- | --- | --- | --- | --- | --- | --- |
| Cc1ccc(COC(=O)N2CCC(CNc3ncccn3)C(F)C2)cc1 (single isomer, unassigned) [3R,4S enantiomer] | 25.5 nM | – | – | – | – | – |
| CN(C)CCCN1c2ccccc2CCc2ccccc21 [imipramine] | – | expected antidepressant activity | expected antidepressant activity | expected antidepressant activity | expected antidepressant activity | expected antidepressant activity |
